What was measured:
[1] = tested on: HCV replicon in human hepatoma Huh-7 cell line; test: Anti-HCV replicon assay (EC50, luciferase readout); format: cell-based; conditions: Hepatitis C virus, Huh-7, 72 h, read-out: EC50 (50% effective concentration)
Experimental: (§1) The anti HCV activity of the quinazoline derivatives of this invention was tested in a human hepatoma Huh-7 cell line harbouring a HCV replicon. The assay comprised the following steps:
(§2) Step 1: compound preparation and serial dilution
(§3) • 1. for water soluble quinazoline derivatives, a volume of 500 μL of solution in cell media (DMEM, 10% FBS, P/S, L-Glutamine) was prepared with a concentration being twice the concentration of the starting final serial dilution concentration. A volume of 150 μL of the solution was added to the pre-specified wells in column 1 of a 96-well cell culture plate (PerkinElmer, white plate, cat. #6005181, for EC50 assay; black plate, cat. #6005182 for CC50 assay). The rest of the plate, columns 2-12, was filled with 100 μL of cell media. The plate was then placed on a Precision 2000 Workstation to start the serial dilution. Compounds were diluted three times each step from column 1 to column 10. Column 11 was used as a blank control (no compound added). • 2. for quinazoline derivatives requiring DMSO to dissolve, serial dilution is performed in 50% DMSO in a 384-well plate. A solution containing a compound at 100-fold concentration of the starting final serial dilution concentration was prepared in 50% DMSO and added to the pre-specified wells in column 1 of a polypropylene 384-well plate. The plate was then placed on a Precision 2000 Workstation to start the serial dilution. After the serial dilution, a volume of 2 μL of the solution was transferred from the 384-well plate to a 96-well cell culture plate containing 100 μL of cell media on a Biomek FX Workstation. The DMSO concentration in the final assay condition was 0.5% after cells are added to the plate and the total volume in each well is brought to 200 μL. Step 2: to each well of the serial dilution plate prepared above, 100 μL of cell media containing 6000 suspended Huh-7 HCV replicon cells was added with a Multidrop workstation. The plates were incubated for 3 days at 37° C. with 5% CO2. Step 3: Detection: • a) for the EC50 assay, the media in a 96-well cell culture plate was aspirated with a Biotek EL405 plate-washer. A volume of 200 μL of a solution containing a 1:1 mixture of cell-lysis buffer (Promega, Luciferase Cell Culture Lysis 5× Reagent, cat. #E1531) and luciferase substrate solution (Promega, Luciferase Assay, cat.# E4550) was added to each well of the plate with Multidrop. The plate was incubated for 30 minutes at room temperature before the luminescence signal was measured with a TopCount plate-reader. • b) for the CC50 assay, a volume of 100 μL of pre-mixed CeliTiter-Glo (Promega, cat.# G7572) solution is added directly to the cell culture in each well of the plate and the luminescence signal is measured with a TopCount plate-reader after 10 minutes of incubation at room temperature.
(§4) Results in the table below are expressed by the following data: • the 50% cytostatic concentration (CC50), i.e. the concentration that results in 50% inhibition of cell growth, and • the 50% effective concentration (EC50), i.e. the concentration that protects 50% of the cell monolayer from virus-induced cytopathic effect.

[2] = CC50 assay (CellTiter-Glo) in Huh-7 HCV replicon cells; format: cell-based, human; conditions: human, 3 days incubation, CellTiter-Glo luminescence, read-out: CC50 (50% cytostatic concentration)
Experimental: as §1, §2, §3, §4

Huh-7 HCV replicon cells = test: as above; format: cell-based, human; conditions: 3 days incubation, CellTiter-Glo luminescence, read-out: CC50 (50% cytostatic concentration)
Experimental: as §1, §2, §3, §4

With NS(=O)(=O)c1ccc(CNc2nc(NCC(F)(F)F)c3cc(-c4ccc(C(=O)NC5CC5)cc4)ccc3n2)cc1 [Example 51, N-Cyclopropyl-4-[2-(4-sulfamoyl-benzylamino)-4-(2,2,2-trifluoroethylamino)-quinazolin-6-yl]-benzamide] as the molecule, how does the EC50 [1] read?
Its EC50 is less than 0.3 µM.

And the CC50 at 3 days [2]?
The CC50 at 3 days was greater than 20 µM.

For CC(=O)Nc1ccc(-c2ccc3nc(N)nc(N4CCOCC4)c3c2)cc1 [Example 30, 2-amino-6-(4-acetamidophenyl)-4-(N-morpholino)quinazoline], which EC50 [1] is on record?
The EC50 was 1 to 10 µM.

What about the CC50 at 3 days [2] of the same molecule?
The CC50 at 3 days was 10 to 20 µM.

What does the source list for CC(=O)Nc1ccc(-c2ccc3nc(N)nc(N4CCN(C)CC4)c3c2)cc1 [Example 34, 2-amino-6-(4-acetamidophenyl)-4-(N-methylpiperazino)quinazoline]?
EC50 [1]: 1 to 10 µM; CC50 at 3 days [2]: 10 to 20 µM

With NS(=O)(=O)c1ccc(CNc2nc(NCC(F)(F)F)c3cc(-c4ccc(F)cc4)ccc3n2)cc1 [Example 52, 4-{[6-(4-Fluoro-phenyl)-4-(2,2,2-trifluoro-ethylamino)quinazolin-2-ylamino]-methyl}-benzenesulfonamide] as the molecule, how does the EC50 [1] read?
The EC50 was less than 0.3 µM.

And the CC50 at 3 days [2]?
The CC50 at 3 days was less than 10 µM.

Which EC50 [1] does the source give for Fc1ccc(-c2ccc3ncnc(NC4CC4)c3c2)cc1 [Example 47, 4-(N-cyclopropylamino)-6-(4-fluorophenyl)-quinazoline] here?
Its EC50 is 1 to 10 µM.

What about the CC50 at 3 days [2] of the same molecule?
Its CC50 at 3 days is greater than 20 µM.

With Nc1nc(Nc2ccccc2)c2cc(-c3ccc(F)cc3)ccc2n1 [Example 48, 2-amino-6-(4-fluorophenyl)-4-(N-anilino)-quinazoline] as the molecule, how does the EC50 [1] read?
Its EC50 is 0.3 to 1 µM.

And the CC50 at 3 days [2]?
Its CC50 at 3 days is less than 10 µM.

For CCCNc1ncnc2ccc(-c3ccc(F)cc3)cc12 [Example 43, 4-(N-propylamino)-6-(4-fluorophenyl)-quinazoline], which EC50 [1] is on record?
The EC50 was 1 to 10 µM.

What about the CC50 at 3 days [2] of the same molecule?
The CC50 at 3 days was greater than 20 µM.

Which results are given for Cn1ccc(Nc2nc(NC3CC3)c3cc(-c4ccc(F)cc4)ccc3n2)n1 [Example 54, N4-cyclopropyl-6-(4-fluoro-phenyl)-N2-(1-methyl-1H-pyrazol-3-yl)-quinazoline-2,4-diamine]?
EC50 [1]: < 0.3 µM; CC50 at 3 days [2]: < 10 µM

With CC(=O)Nc1ccc(-c2ccc3nc(N)nc(N4CCCCC4)c3c2)cc1 [Example 31, 2-amino-6-(4-acetamidophenyl)-4-(N-piperidino)quinazoline] as the molecule, how does the EC50 [1] read?
The EC50 was 1 to 10 µM.

And the CC50 at 3 days [2]?
The CC50 at 3 days was 10 to 20 µM.

What does the source list for COc1ccc(-c2ccc3nc(N)nc(N4CCOCC4)c3c2)cc1OC [Example 14, 2-amino-6-(3,4-dimethoxyphenyl)-4-(N-morpholino)quinazoline]?
EC50 [1]: < 0.3 µM; CC50 at 3 days [2]: < 10 µM

With COc1ccc(-c2ccc3nc(N)nc(Nc4cccc(Br)c4)c3c2)cc1OC [Example 16, 2-amino-6-(3,4-dimethoxyphenyl)-4-[N-(3-bromo)-anilino]-quinazoline] as the molecule, how does the EC50 [1] read?
Its EC50 is less than 0.3 µM.

What about the CC50 at 3 days [2] of the same molecule?
The CC50 at 3 days was greater than 20 µM.

What does the source list for Nc1ncnc2ccc(-c3ccc(F)cc3)cc12 [Example 39, 4-amino-6-(4-fluorophenyl)-quinazoline]?
EC50 [1]: 1 to 10 µM; CC50 at 3 days [2]: > 20 µM

For Nc1nc(N2CCOCC2)c2cc(-c3ccc(F)cc3)ccc2n1 [Example 28, 2-amino-6-(4-fluorophenyl)-4-(N-morpholino)-quinazoline], which EC50 [1] is on record?
The EC50 was 0.3 to 1 µM.

What about the CC50 at 3 days [2] of the same molecule?
The CC50 at 3 days was less than 10 µM.

What does the source list for Fc1ccc(-c2ccc3ncnc(N4CCOCC4)c3c2)cc1 [Example 37, 6-(4-fluorophenyl)-4-(N-morpholino)-quinazoline]?
EC50 [1]: 1 to 10 µM; CC50 at 3 days [2]: > 20 µM

Which EC50 [1] does the source give for Nc1nc(N2CCOCC2)c2cc(-c3ccc(Cl)cc3)ccc2n1 [Example 27, 2-amino-6-(4-chlorophenyl)-4-(N-morpholino)-quinazoline] here?
The EC50 was 0.3 to 1 µM.

And the CC50 at 3 days [2]?
Its CC50 at 3 days is 10 to 20 µM.

Which results are given for CC(=O)Nc1ccc(-c2ccc3nc(N)nc(N4CCN(C(C)=O)CC4)c3c2)cc1 [Example 32, 2-amino-6-(4-acetamidophenyl)-4-(N-acetylpiperazino)quinazoline]?
EC50 [1]: 1 to 10 µM; CC50 at 3 days [2]: > 20 µM

Which CC50 (Huh-7 HCV replicon cells) does the source give for COCCNc1nc(N)nc2ccc(-c3ccc(C(=O)NC4CC4)cc3)cc12 [Example 56, 4-[2-Amino-4-(2-methoxy-ethylamino)-quinazolin-6-yl]-N cyclopropyl-benzamide] here?
Its CC50 is greater than 20 µM.

Which EC50 [1] does the source give for CN(C)c1ncnc2ccc(-c3ccc(F)cc3)cc12 [Example 45, 4-(N,N-dimethylamino)-6-(4-fluorophenyl)-quinazoline] here?
The EC50 was 1 to 10 µM.

And the CC50 at 3 days [2]?
The CC50 at 3 days was greater than 20 µM.
